Laboratory results as given in PMC7378375, “High-Throughput Screening of a Functional Human CXCL12-CXCR4 Signaling Axis in a Genetically Modified S. cerevisiae: Discovery of a Novel Up-Regulator of CXCR4 Activity” (Frontiers in Molecular Biosciences, 2020).

Molecular target: CXCL12 (Homo sapiens, UniProt P48061)
Experiment: 1H-15N HSQC NMR titration of […]-CXCL12 (global fit of eight resonances, pH […]); supported by SEC-MALS
Type: binding

CXCL12, sequence (P48061 22-88): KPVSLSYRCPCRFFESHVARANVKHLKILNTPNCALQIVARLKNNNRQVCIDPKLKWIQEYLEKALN

Compound: O=C(O)c1ccccc1OP(=O)(O)O [fosfosal, 2-(phosphonooxy) benzoic acid]
- Kd: 147 µM
